Assays:
NZBWF1 mice = assay: Survival in NZBWF1 SLE mouse model; type: in vivo; conditions: 0.3, 1.0, 3.0 mg/kg PO QD, Logrank p=0.0229, 0.0308, 0.0201
Procedure: As in Example 2, compound 5 was tested for efficacy in the same NZB×NZW F1 (“NZBWF1”) mouse model for SLE as compound 148. Six groups of NZBWF1 mice (Jackson Laboratories, stock #100008) were used in the study and were acclimated to the research facility for 6 weeks prior to the start of the study. Weekly measurements of proteinuria (excess serum proteins present in the urine) and body weight began at 20 weeks of age. At 22 weeks of age, the mice were assigned to groups in a balanced manner in order to achieve average body weight and average proteinuria measurements across the groups. One “naive” group consisting of 10 mice was euthanized at the start of treatment and used as a source of tissue for analysis. Treatment began at 22 weeks of age.
The five treatment groups were administered cyclophosphamide (positive control, 20 mice; introduced gradually to reduce toxicity (IP, once a week, 10 mg/kg at Weeks 22 and 23 and 50 mg/kg from Week 24 to the end of the study)), vehicle (negative control, 20 mice), or compound 5 (three groups of 20 mice), beginning at 22 weeks of age and observed over the course of 20 weeks. The three groups dosed with compound 5 received 0.3, 1.0, and 3.0 mg/kg PO QD, respectively (20 mice per dosage). Surviving animals were sacrificed at 42 weeks. […] Disease development was evaluated as disclosed in the following examples.

splenocytes = assay: Splenocyte counts and immunophenotyping of spleen cell subtypes; type: in vivo, mice; conditions: NZBWF1 mice; for Total splenocyte counts relative to vehicle: 42 weeks; for Percent Reduction vs Vehicle: Activated CD4 + T cells / Percent Reduction vs Vehicle: CD4 + T cells / Percent Reduction vs Vehicle: CD8 + T cells / Percent Reduction vs Vehicle: CD11b + Ly6C^hi monocytes / Percent Reduction vs Vehicle: CD19 + B cells / Percent Reduction vs Vehicle: Follicular B cells / Percent Reduction vs Vehicle: Germinal Center B cells / Percent Reduction vs Vehicle: Marginal Zone B cells / Percent Reduction vs Vehicle: Marginal Zone Progenitor B cells / Percent Reduction vs Vehicle: Naive CD4 + T cells / Percent Reduction vs Vehicle: Plasma cells / Percent Reduction vs Vehicle: Tfh cells / Percent Reduction vs Vehicle: Total splenocytes / Percent Reduction vs Vehicle: Treg cells / Percent Reduction vs Vehicle: pDC: spleen
Procedure: To determine the effects of compound 148 on inflammatory infiltrate in the spleen, spleens were weighed at 42 weeks. […] Splenocyte suspensions were then prepared. RBCs were lysed and splenocytes were counted.
Plasmacytoid dendritic cells (pDC) express IFNAR1 (Interferon alpha receptor 1), which amplifies the proinflammatory response to type 1 interferons (e.g., IFNα) that are associated with lupus. IFNAR activity is considered to be an important modulator of signal strength and duration in pDC and subsequent activation of T and B cells in the inflammatory response. pDC counts were measured at termination.
To determine the effects of compound 5 on inflammatory infiltrate in the spleen, spleens were weighed at 42 weeks. […] Splenocyte suspensions were prepared for all three doses. RBCs were lysed and splenocytes were counted.

[1] = test system: CD4+ T cells, CD8+ T cells, and CD19+ B cells; assay: Peripheral lymphocyte counts from whole blood by flow cytometry; type: in vivo; conditions: NZBWF1 mice
Procedure: Lymphocyte counts were measured from whole blood taken at 23, 31, and 36.5 weeks using flow cytometry. Cells were gated for CD4+ T cells, CD8+ T cells, and CD19+ B cells. […] Serum blood urea nitrogen (BUN) was also measured at termination to assess kidney function.

[2] = test system: inflammatory and immune response genes; assay: Kidney mRNA levels of inflammatory and immune response genes (QuantiGene Multiplex Assay); type: in vivo; conditions: NZBWF1 mice; 3 mpk PO; n=5
Procedure: (§1) As explained above, SLE is characterized by aberrant recognition of healthy “self” tissue as antigenic. The resulting immune response is characterized by inflammation. To measure SLE status, mRNA levels were measured for an array of inflammatory and immune response genes from kidneys collected at termination or week 23 (naïve) and stored in RNAlater (n=5). mRNA was quantified using QuantiGene Multiplex Assay.

profibrotic genes = assay: Kidney mRNA levels of profibrotic genes; type: in vivo; conditions: NZBWF1 mice
Procedure: as §1
SLE-related inflammation can lead to fibrotic scarring. mRNA levels were measured for an array of profibrotic genes. […] Expression signals of MMP10, IL-2, IL-6, and TNF were also measured, but were below LLOQ (data not shown).

IFNα = assay: Serum IFNα by ELISA; type: in vivo; conditions: NZBWF1 mice; all treatment groups 0.3, 1.0, 3.0 mg/kg PO QD; weeks 23, 29, 36, 42; assay sensitivity 7.48 pg/ml
Procedure: As discussed above, IFNAR1 (Interferon alpha receptor 1) and its ligand IFNα are important modulators of lupus-associated autoimmune response in humans. Serum IFNα was measured by ELISA (eBioscience kit) at 23, 29, 36, and 42 weeks (FIG. 17). Assay sensitivity was 7.48 pg/ml (dotted line). […] However, several samples at multiple time points were below the sensitivity of the assay (data not shown), consistent with reports that the NZBWF1 model has a weak IFNα signature. To determine whether compound 148 affected IFNAR1 expression, percent surface expression and MFI expression were measured in pDC cells at termination (FIGS. 18A and 18B, respectively).

IFN-inducible genes = assay: mRNA expression of genes responsive to type-1 interferon signaling; type: in vivo; conditions: NZBWF1 mice; 3 mpk PO
[3] = 3.0 mg/kg PO QD (compound 148 study)

SMILES: CC(C)Oc1ccc(-c2nc(-c3cccc4c3CC[C@@H]4NCCO)no2)cc1C#N [compound 5, (S)-5-(3-(1-(2-hydroxyethylamino)-2,3-dihydro-1H-inden-4-yl)-1,2,4-oxadiazol-5-yl)-2-isopropoxy benzonitrile]
- Survival compared to vehicle (NZBWF1 mice): improved survival compared to vehicle treated animals
- Total splenocyte counts relative to vehicle (splenocytes; all groups 0.3, 1.0, 3.0 mg/kg PO QD (compound 5 study)): reduced
- Percent Reduction vs Vehicle: Activated CD4 + T cells (splenocytes; 0.3 mg/kg PO QD): 46%
- Percent Reduction vs Vehicle: CD4 + T cells (splenocytes; 0.3 mg/kg PO QD): 51%
- Percent Reduction vs Vehicle: CD8 + T cells (splenocytes; 0.3 mg/kg PO QD): 46%
- Percent Reduction vs Vehicle: CD11b + Ly6C^hi monocytes (splenocytes; 0.3 mg/kg PO QD): −17%
- Percent Reduction vs Vehicle: CD19 + B cells (splenocytes; 0.3 mg/kg PO QD): 43%
- Percent Reduction vs Vehicle: Follicular B cells (splenocytes; 0.3 mg/kg PO QD): 43%
- Percent Reduction vs Vehicle: Germinal Center B cells (splenocytes; 0.3 mg/kg PO QD): 46%
- Percent Reduction vs Vehicle: Marginal Zone B cells (splenocytes; 0.3 mg/kg PO QD): 20%
- Percent Reduction vs Vehicle: Marginal Zone Progenitor B cells (splenocytes; 0.3 mg/kg PO QD): 75%
- Percent Reduction vs Vehicle: Naive CD4 + T cells (splenocytes; 0.3 mg/kg PO QD): 73%
- Percent Reduction vs Vehicle: Plasma cells (splenocytes; 0.3 mg/kg PO QD): 50%
- Percent Reduction vs Vehicle: Tfh cells (splenocytes; 0.3 mg/kg PO QD): 35%
- Percent Reduction vs Vehicle: Total splenocytes (splenocytes; 0.3 mg/kg PO QD): 35%
- Percent Reduction vs Vehicle: Treg cells (splenocytes; 0.3 mg/kg PO QD): 37%
- Percent Reduction vs Vehicle: pDC (splenocytes; 0.3 mg/kg PO QD): 49%
- Percent Reduction vs Vehicle: Activated CD4 + T cells (splenocytes; 1.0 mg/kg PO QD): 72%
- Percent Reduction vs Vehicle: CD4 + T cells (splenocytes; 1.0 mg/kg PO QD): 75%
- Percent Reduction vs Vehicle: CD8 + T cells (splenocytes; 1.0 mg/kg PO QD): 77%
- Percent Reduction vs Vehicle: CD11b + Ly6C^hi monocytes (splenocytes; 1.0 mg/kg PO QD): 34%
- Percent Reduction vs Vehicle: CD19 + B cells (splenocytes; 1.0 mg/kg PO QD): 69%
- Percent Reduction vs Vehicle: Follicular B cells (splenocytes; 1.0 mg/kg PO QD): 66%
- Percent Reduction vs Vehicle: Germinal Center B cells (splenocytes; 1.0 mg/kg PO QD): 57%
- Percent Reduction vs Vehicle: Marginal Zone B cells (splenocytes; 1.0 mg/kg PO QD): 63%
- Percent Reduction vs Vehicle: Marginal Zone Progenitor B cells (splenocytes; 1.0 mg/kg PO QD): 88%
- Percent Reduction vs Vehicle: Naive CD4 + T cells (splenocytes; 1.0 mg/kg PO QD): 91%
- Percent Reduction vs Vehicle: Plasma cells (splenocytes; 1.0 mg/kg PO QD): 66%
- Percent Reduction vs Vehicle: Tfh cells (splenocytes; 1.0 mg/kg PO QD): 51%
- Percent Reduction vs Vehicle: Total splenocytes (splenocytes; 1.0 mg/kg PO QD): 50%
- Percent Reduction vs Vehicle: Treg cells (splenocytes; 1.0 mg/kg PO QD): 58%
- Percent Reduction vs Vehicle: pDC (splenocytes; 1.0 mg/kg PO QD): 72%
- Percent Reduction vs Vehicle: Activated CD4 + T cells (splenocytes; 3.0 mg/kg PO QD): 80%
- Percent Reduction vs Vehicle: CD4 + T cells (splenocytes; 3.0 mg/kg PO QD): 81%
- Percent Reduction vs Vehicle: CD8 + T cells (splenocytes; 3.0 mg/kg PO QD): 75%
- Percent Reduction vs Vehicle: CD11b + Ly6C^hi monocytes (splenocytes; 3.0 mg/kg PO QD): 28%
- Percent Reduction vs Vehicle: CD19 + B cells (splenocytes; 3.0 mg/kg PO QD): 74%
- Percent Reduction vs Vehicle: Follicular B cells (splenocytes; 3.0 mg/kg PO QD): 72%
- Percent Reduction vs Vehicle: Germinal Center B cells (splenocytes; 3.0 mg/kg PO QD): 64%
- Percent Reduction vs Vehicle: Marginal Zone B cells (splenocytes; 3.0 mg/kg PO QD): 54%
- Percent Reduction vs Vehicle: Marginal Zone Progenitor B cells (splenocytes; 3.0 mg/kg PO QD): 85%
- Percent Reduction vs Vehicle: Naive CD4 + T cells (splenocytes; 3.0 mg/kg PO QD): 88%
- Percent Reduction vs Vehicle: Plasma cells (splenocytes; 3.0 mg/kg PO QD): 70%
- Percent Reduction vs Vehicle: Tfh cells (splenocytes; 3.0 mg/kg PO QD): 68%
- Percent Reduction vs Vehicle: Total splenocytes (splenocytes; 3.0 mg/kg PO QD): 60%
- Percent Reduction vs Vehicle: Treg cells (splenocytes; 3.0 mg/kg PO QD): 81%
- Percent Reduction vs Vehicle: pDC (splenocytes; 3.0 mg/kg PO QD): 68%

SMILES: CC(C)Oc1ccc(-c2nc(-c3cccc4c3CC[C@@H]4N)no2)cc1C#N [compound 148, (S)-5-(3-(1-amino-2,3-dihydro-1H-inden-4-yl)-1,2,4-oxadiazol-5-yl)-2-isopropoxy-benzonitrile]
- Reduction of overall lymphocyte counts relative to vehicle ([1]; whole blood at 23, 31 and 36.5 weeks, all three doses (0.3, 1.0, 3.0 mg/kg PO QD), p<0.05): > 90%
- CD4+ T cell and CD8+ T cell counts relative to cyclophosphamide ([1]; whole blood, flow cytometry): Significant reductions
- Total splenocyte counts relative to vehicle (splenocytes; all groups 0.3, 1.0, 3.0 mg/kg PO QD (compound 148 study)): reduced
- Decrease of splenic pDC counts relative to vehicle (splenocytes; at termination, 3.0 mg/kg PO QD (compound 148 study)): 62%
- Decrease in splenic CD4+ T cell population (splenocytes; [3]): 75%
- Decrease in splenic Follicular (FO) B cells (splenocytes; [3]): 79%
- Reduction in splenic CD8+ T cell population (splenocytes; [3]): 62%
- Reduction in splenic CD19+ B cell population (splenocytes; [3]): 67%
- Reduction in splenic Germinal Center (GC) B cell population (splenocytes; [3]): 51%
- Reduction in splenic Marginal Zone (MZ) B cell population (splenocytes; [3]): 61%
- Reduction in splenic activated CD4+ T cell population (splenocytes; [3]): 75%
- Reduction in splenic naïve CD4+ T cells (splenocytes; [3]): 81%
- Reduction in splenic plasma cell population (splenocytes; [3]): 30%
- Kidney mRNA level of CCL5 relative to control [2]: decreased levels
- Kidney mRNA level of CXCL9 relative to control [2]: decreased levels
- Kidney mRNA level of CXCL10 relative to control [2]: decreased levels
- Kidney mRNA level of IL-1β relative to control [2]: decreased levels
- Kidney mRNA level of IL-10 relative to control [2]: decreased levels
- Kidney mRNA level of TNFSF13b/BAFF relative to control [2]: decreased levels
- mRNA level of Cdcd88a/Girdin relative to control (profibrotic genes; 3 mpk PO): decreased levels
- mRNA level of LOXL1 relative to control (profibrotic genes; 3 mpk PO): decreased levels
- mRNA level of Lipocalin 2 relative to control (profibrotic genes; 3 mpk PO): decreased levels
- mRNA level of TGFβ2 relative to control (profibrotic genes; 3 mpk PO): decreased levels
- mRNA level of TIMP1 relative to control (profibrotic genes; 3 mpk PO): decreased levels
- mRNA level of Transgelin relative to control (profibrotic genes; 3 mpk PO): decreased levels
- IFGBP2 mRNA levels (profibrotic genes; following administration of compound 148): appeared to increase somewhat
- Serum IFNα levels compared to vehicle (IFNα): lower serum IFNα levels compared to vehicle
- Expression levels of IFN-inducible genes (mRNA) (IFN-inducible genes): no significant effect
